# Test results reported in publication PMC3229200 (Bioorganic & medicinal chemistry, 2011).
# Key:
# σ2 receptor [1] = target: σ2 receptor (Homo sapiens, UniProt Q5BJF2); type: binding; conditions: 10 μM competing compound, 1 nM [125I]-IAF, RT4 cell membranes
# σ1 receptor = σ1 receptor (Homo sapiens, UniProt Q99720); type: binding; conditions: 10 μM competing compound, 1 nM [125I]-IAF, RT4 cell membranes
# σ2 receptor [2] = target: T1, σ2 receptor (Rattus norvegicus, UniProt Q5U3Y7); test: Competitive σ2 receptor radioligand binding
# T1 sequence (Q5U3Y7 1-176): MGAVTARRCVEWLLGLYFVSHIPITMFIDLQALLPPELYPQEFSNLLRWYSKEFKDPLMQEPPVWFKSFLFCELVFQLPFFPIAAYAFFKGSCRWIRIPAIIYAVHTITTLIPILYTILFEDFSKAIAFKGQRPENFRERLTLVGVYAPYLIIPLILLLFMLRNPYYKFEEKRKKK
# Chain of σ1 receptor (Q99720 whole entry): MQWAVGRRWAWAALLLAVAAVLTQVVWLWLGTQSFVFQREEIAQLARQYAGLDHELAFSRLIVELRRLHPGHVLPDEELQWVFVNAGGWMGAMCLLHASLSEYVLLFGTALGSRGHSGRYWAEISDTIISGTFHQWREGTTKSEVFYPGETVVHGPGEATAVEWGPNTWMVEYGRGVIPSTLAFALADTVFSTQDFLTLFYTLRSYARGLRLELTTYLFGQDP
# Chain of σ2 receptor (Homo sapiens, UniProt Q5BJF2) (Q5BJF2 whole entry): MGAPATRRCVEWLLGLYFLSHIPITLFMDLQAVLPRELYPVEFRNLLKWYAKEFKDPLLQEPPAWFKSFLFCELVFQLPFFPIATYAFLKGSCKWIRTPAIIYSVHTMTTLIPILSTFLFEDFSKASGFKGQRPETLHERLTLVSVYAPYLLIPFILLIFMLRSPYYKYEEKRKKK
Compound,Blocking of σ1 receptor photolabeling by [125I]-IAF (σ1 receptor),Selectivity for the σ2 over the σ1 receptor (σ2 receptor [2]),"Improvement of σ2 selectivity relative to the σ1 receptor, versus 5f (σ2 receptor [2]; 5e compared to 5f) [fold]",Increase of σ2 affinity versus 5f (σ2 receptor [2]; 5e compared to 5f) [fold],Increase of σ2 affinity in comparison to compound 5h (σ2 receptor [2]; 5g compared to 5h) [fold],Blocking of σ2 receptor photolabeling by [125I]-IAF (σ2 receptor [1])
"O=C1c2ccccc2C(=O)N1CCCCN1CCc2ccc([N+](=O)[O-])cc2C1 [Compound 3b, 2-(4-(7-Nitro-3,4-dihydroisoquinoline-2(1H)-yl)butyl)isoindoline-1,3-dione]",diminished both bands,,,,,diminished both bands
"COc1cccc(C(=O)NCCCCN2CCc3ccc([N+](=O)[O-])cc3C2)c1OC [Compound 5f, 2,3-Dimethoxy-N-(4-(7-nitro-3,4-dihydroisoquinoline-2(1H)-yl)butyl)benzamide]",did not block the labeling of either receptor,,,,,did not block the labeling of either receptor
"O=C(CCCN1CCC(O)(c2ccc(Cl)cc2)CC1)c1ccc(F)cc1 [haloperidol, reference compound]",,,,,,blocked photolabeling

# Second part, led by results:
Blocking of σ1 receptor photolabeling by [125I]-IAF (σ1 receptor),Selectivity for the σ2 over the σ1 receptor (σ2 receptor [2]),"Improvement of σ2 selectivity relative to the σ1 receptor, versus 5f (σ2 receptor [2]; 5e compared to 5f) [fold]",Increase of σ2 affinity versus 5f (σ2 receptor [2]; 5e compared to 5f) [fold],Increase of σ2 affinity in comparison to compound 5h (σ2 receptor [2]; 5g compared to 5h) [fold],Compound,Blocking of σ2 receptor photolabeling by [125I]-IAF (σ2 receptor [1])
left σ1 labeling essentially unaltered,~ 400 fold,631,500,,"COc1ccc(C(=O)NCCCCN2CCc3ccc([N+](=O)[O-])cc3C2)c(OC)c1OC [Compound 5e, 2,3,4-Trimethoxy-N-(4-(7-nitro-3,4-dihydroisoquinoline-2(1H)-yl)butyl)benzamide]",eliminated σ2 labeling
,,,,4.5,"COc1c(I)ccc(C(=O)NCCCCN2CCc3ccc([N+](=O)[O-])cc3C2)c1O [Compound 5g, 2-Hydroxy-4-iodo-3-methoxy-N-(4-(7-nitro-3,4-dihydroisoquinoline-2(1H)-yl)butyl)benzamide]",
